# Reference: the kinase profiling compilation of Christmann-Franck et al. (2016)
# Experiments:
# Assay in all cases: KINOMEscan competition binding
# Details in all cases: compound 10.0 µM
# [1] = target: ACVR1B (human) (UniProt P36896)
# [2] = target: ACVR2A (human) (UniProt P27037)
# [3] = target: AKT1 (human) (UniProt P31749)
# [4] = target: BMPR1A (human) (UniProt P36894)
# [5] = target: CAMKK2 (human) (UniProt Q96RR4)
# [6] = target: CDC42BPB (human) (UniProt Q9Y5S2)
# [7] = target: CDK15 (human) (UniProt Q96Q40)
# [8] = target: CDK7 (human) (UniProt P50613)
# [9] = target: CSNK1D (human) (UniProt P48730)
# [10] = target: DCLK1 (human) (UniProt O15075)
# [11] = target: DDR1 (human) (UniProt Q08345)
# [12] = target: EPHB3 (human) (UniProt P54753)
# [13] = target: ERBB4 (human) (UniProt Q15303)
# [14] = target: ERN1 (human) (UniProt O75460)
# [15] = target: FGFR4 (human) (UniProt P22455)
# [16] = target: HIPK3 (human) (UniProt Q9H422)
# [17] = target: IRAK3 (human) (UniProt Q9Y616)
# [18] = target: IRAK4 (human) (UniProt Q9NWZ3)
# [19] = target: MAP2K1 (human) (UniProt Q02750)
# [20] = target: MAP3K12 (human) (UniProt Q12852)
# [21] = target: MAP3K4 (human) (UniProt Q9Y6R4)
# [22] = target: MARK1 (human) (UniProt Q9P0L2)
# [23] = target: MARK2 (human) (UniProt Q7KZI7)
# [24] = system: MET (human), P08581 [M1250T]
# [25] = target: MLTK (human) (UniProt Q9NYL2)
# [26] = target: NTRK1 (human) (UniProt P04629)
# [27] = target: PAK4 (human) (UniProt O96013)
# [28] = target: PAK6 (human) (UniProt Q9NQU5)
# [29] = target: PHKG2 (human) (UniProt P15735)
# [30] = target: PLK2 (human) (UniProt Q9NYY3)
# [31] = target: PRKACA (human) (UniProt P17612)
# [32] = target: PRKCQ (human) (UniProt Q04759)
# [33] = target: PRKG2 (human) (UniProt Q13237)
# [34] = target: PRKX (human) (UniProt P51817)
# [35] = target: RIPK4 (human) (UniProt P57078)
# [36] = target: RPS6KA5 KD1 (human) (UniProt O75582)
# [37] = target: SRPK3 (human) (UniProt Q9UPE1)
# [38] = target: STK4 (human) (UniProt Q13043)
# [39] = target: TLK1 (human) (UniProt Q9UKI8)
# [40] = target: ULK2 (human) (UniProt Q8IYT8)
# Chain of PAK4 (human) (O96013 whole entry, looked up): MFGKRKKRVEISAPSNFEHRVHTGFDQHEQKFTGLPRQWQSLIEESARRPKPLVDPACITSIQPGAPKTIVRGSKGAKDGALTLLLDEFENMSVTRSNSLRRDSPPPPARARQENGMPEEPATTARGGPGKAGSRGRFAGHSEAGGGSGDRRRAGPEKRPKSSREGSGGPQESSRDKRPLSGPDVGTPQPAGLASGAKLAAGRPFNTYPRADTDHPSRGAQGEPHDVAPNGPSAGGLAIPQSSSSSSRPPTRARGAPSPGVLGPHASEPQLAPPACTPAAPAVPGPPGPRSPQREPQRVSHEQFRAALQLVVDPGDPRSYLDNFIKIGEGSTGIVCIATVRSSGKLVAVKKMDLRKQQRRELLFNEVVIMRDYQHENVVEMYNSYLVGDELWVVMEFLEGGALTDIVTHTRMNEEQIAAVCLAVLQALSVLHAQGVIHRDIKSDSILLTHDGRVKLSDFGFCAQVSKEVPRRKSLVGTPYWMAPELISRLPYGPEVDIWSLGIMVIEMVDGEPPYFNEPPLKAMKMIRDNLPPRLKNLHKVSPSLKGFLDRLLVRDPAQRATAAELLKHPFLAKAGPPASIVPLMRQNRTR
# Chain of CSNK1D (human) (P48730 whole entry, looked up): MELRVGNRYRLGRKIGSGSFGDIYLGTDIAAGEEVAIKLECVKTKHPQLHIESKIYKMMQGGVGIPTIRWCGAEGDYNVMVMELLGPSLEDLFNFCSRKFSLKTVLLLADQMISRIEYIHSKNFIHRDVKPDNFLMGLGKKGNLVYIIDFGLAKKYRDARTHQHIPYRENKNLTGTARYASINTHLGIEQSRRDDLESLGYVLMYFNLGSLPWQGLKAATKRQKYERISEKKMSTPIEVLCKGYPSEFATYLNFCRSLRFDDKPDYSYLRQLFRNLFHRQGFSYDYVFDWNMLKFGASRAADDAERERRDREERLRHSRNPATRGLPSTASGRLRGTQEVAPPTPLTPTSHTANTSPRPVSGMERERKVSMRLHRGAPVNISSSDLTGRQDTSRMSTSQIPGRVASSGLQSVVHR
# Chain of PLK2 (human) (Q9NYY3 whole entry, looked up): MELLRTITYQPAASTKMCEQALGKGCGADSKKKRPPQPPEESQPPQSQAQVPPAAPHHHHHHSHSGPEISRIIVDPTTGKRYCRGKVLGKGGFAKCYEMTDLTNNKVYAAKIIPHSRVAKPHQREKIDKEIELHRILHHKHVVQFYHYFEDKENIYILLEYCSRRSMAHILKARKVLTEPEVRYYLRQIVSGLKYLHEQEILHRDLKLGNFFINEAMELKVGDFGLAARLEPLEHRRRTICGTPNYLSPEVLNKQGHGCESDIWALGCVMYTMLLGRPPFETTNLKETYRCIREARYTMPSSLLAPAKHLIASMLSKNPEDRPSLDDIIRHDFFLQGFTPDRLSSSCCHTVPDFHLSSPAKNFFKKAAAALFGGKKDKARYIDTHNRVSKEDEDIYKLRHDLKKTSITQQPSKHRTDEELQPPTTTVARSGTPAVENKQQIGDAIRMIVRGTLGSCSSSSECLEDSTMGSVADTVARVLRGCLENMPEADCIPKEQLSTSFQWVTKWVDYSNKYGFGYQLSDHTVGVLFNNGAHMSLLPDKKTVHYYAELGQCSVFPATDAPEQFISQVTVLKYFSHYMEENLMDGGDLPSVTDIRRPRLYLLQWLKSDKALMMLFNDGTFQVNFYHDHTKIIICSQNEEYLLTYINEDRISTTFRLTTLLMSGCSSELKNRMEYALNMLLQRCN
# Chain of SRPK3 (human) (Q9UPE1 whole entry, looked up): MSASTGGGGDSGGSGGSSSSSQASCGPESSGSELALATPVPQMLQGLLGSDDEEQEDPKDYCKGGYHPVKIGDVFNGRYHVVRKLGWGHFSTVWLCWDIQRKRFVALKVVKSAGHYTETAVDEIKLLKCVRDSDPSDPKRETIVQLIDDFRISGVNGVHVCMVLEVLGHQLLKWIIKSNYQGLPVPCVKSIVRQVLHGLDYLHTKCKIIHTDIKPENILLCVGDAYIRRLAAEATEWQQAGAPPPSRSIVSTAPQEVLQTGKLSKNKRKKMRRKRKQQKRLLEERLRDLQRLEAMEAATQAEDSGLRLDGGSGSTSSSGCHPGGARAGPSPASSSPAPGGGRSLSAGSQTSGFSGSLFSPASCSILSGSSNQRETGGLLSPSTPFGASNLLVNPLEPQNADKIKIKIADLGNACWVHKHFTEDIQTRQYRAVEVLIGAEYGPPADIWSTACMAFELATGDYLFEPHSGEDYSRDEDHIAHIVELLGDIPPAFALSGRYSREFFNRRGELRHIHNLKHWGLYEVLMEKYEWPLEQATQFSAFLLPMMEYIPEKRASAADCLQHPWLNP
# Chain of AKT1 (human) (P31749 whole entry, looked up): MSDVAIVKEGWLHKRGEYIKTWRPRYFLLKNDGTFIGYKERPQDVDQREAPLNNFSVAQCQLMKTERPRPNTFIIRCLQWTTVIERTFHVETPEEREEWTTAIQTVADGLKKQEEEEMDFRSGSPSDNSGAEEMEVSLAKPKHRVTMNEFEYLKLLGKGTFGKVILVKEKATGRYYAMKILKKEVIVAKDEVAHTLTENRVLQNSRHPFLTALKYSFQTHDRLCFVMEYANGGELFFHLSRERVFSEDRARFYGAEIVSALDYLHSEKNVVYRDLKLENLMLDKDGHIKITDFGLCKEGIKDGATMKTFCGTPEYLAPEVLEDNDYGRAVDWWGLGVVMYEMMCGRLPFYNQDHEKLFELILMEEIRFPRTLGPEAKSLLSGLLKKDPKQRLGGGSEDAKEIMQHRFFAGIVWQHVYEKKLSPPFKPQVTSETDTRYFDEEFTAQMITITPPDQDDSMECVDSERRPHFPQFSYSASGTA
# Chain of IRAK4 (human) (Q9NWZ3 whole entry, looked up): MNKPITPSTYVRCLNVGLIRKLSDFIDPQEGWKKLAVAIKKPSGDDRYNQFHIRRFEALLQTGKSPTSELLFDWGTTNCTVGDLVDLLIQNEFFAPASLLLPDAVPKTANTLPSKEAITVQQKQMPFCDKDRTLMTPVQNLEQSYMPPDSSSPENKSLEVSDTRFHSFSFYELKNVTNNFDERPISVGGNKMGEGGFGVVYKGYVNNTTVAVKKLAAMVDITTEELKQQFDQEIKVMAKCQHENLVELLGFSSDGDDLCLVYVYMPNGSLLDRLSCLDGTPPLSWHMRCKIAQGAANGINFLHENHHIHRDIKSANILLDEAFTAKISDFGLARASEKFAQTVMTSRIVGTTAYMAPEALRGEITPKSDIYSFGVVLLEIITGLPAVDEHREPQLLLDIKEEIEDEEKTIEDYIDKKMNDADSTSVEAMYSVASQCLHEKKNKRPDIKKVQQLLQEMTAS
# Chain of ACVR1B (human) (P36896 whole entry, looked up): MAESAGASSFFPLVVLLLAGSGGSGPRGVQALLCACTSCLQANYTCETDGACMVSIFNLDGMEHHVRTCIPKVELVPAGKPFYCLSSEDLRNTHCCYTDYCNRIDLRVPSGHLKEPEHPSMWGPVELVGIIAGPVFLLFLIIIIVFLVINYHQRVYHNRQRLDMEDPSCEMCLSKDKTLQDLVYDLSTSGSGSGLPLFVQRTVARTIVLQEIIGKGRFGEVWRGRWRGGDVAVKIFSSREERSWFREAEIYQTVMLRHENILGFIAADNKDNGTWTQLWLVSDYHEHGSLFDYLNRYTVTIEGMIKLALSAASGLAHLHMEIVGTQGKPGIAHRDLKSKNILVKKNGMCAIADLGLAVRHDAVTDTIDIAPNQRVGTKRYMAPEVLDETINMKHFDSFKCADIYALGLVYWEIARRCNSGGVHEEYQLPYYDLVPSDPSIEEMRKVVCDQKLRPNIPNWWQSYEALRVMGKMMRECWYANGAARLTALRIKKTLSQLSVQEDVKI
# Chain of RIPK4 (human) (P57078 whole entry, looked up): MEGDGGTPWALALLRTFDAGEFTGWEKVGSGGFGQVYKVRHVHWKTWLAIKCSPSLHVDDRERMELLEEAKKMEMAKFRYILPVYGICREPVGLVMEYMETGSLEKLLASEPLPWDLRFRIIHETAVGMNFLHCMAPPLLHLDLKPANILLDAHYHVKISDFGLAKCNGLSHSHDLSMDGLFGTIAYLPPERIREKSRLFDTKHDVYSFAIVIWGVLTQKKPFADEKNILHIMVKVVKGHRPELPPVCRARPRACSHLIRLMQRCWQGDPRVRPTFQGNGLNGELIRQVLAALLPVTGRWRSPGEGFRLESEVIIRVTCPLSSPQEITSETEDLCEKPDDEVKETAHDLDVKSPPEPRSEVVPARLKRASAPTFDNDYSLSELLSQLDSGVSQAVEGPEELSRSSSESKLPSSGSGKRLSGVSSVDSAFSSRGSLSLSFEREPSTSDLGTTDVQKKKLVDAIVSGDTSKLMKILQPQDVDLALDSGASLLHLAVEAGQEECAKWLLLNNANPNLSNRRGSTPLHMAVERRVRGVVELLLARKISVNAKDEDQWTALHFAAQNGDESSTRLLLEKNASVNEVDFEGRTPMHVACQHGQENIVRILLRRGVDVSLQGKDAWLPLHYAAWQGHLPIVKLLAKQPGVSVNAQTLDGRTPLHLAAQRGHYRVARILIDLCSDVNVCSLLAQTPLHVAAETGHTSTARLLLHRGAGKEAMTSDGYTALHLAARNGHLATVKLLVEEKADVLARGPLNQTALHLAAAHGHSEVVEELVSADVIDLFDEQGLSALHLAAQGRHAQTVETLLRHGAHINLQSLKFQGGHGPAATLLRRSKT
# Chain of CDK15 (human) (Q96Q40 whole entry, looked up): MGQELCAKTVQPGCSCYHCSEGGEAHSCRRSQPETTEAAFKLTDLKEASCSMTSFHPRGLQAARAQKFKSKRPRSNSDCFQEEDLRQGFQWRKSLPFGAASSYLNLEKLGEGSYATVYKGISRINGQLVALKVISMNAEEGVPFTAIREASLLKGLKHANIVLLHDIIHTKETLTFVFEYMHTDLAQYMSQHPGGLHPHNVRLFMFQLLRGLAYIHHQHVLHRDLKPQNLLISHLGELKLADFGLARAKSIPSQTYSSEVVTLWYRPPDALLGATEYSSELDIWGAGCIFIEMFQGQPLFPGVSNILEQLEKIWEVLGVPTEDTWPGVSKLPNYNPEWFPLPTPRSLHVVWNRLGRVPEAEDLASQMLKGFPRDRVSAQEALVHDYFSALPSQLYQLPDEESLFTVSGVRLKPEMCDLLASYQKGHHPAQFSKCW
structure (smiles),measurement,setting,value
CCN1CCN(Cc2ccc(NC(=O)c3ccc(C)c(/C=C/c4cnc5[nH]ccc5c4OC)c3)cc2C(F)(F)F)CC1,"kinase still bound, per cent of control",[1],98%
same,"kinase still bound, per cent of control",[2],100%
same,"kinase still bound, per cent of control",[3],100%
same,"kinase still bound, per cent of control",[4],76%
same,"kinase still bound, per cent of control",[5],100%
same,"kinase still bound, per cent of control",[6],65%
same,"kinase still bound, per cent of control",[7],36%
same,"kinase still bound, per cent of control",[8],41%
same,"kinase still bound, per cent of control",[9],38%
same,"kinase still bound, per cent of control",[10],93%
same,"kinase still bound, per cent of control",[11],0.15%
same,"kinase still bound, per cent of control",[12],4.7%
same,"kinase still bound, per cent of control",[13],0.1%
same,"kinase still bound, per cent of control",[14],72%
same,"kinase still bound, per cent of control",[15],0.45%
same,"kinase still bound, per cent of control",[16],44%
same,"kinase still bound, per cent of control",[17],65%
same,"kinase still bound, per cent of control",[18],48%
same,"kinase still bound, per cent of control",[19],74%
same,"kinase still bound, per cent of control",[20],22%
same,"kinase still bound, per cent of control",[21],66%
same,"kinase still bound, per cent of control",[22],94%
same,"kinase still bound, per cent of control",[23],68%
same,"kinase still bound, per cent of control",[24],26%
same,"kinase still bound, per cent of control",[25],0.8%
same,"kinase still bound, per cent of control",[26],2.5%
same,"kinase still bound, per cent of control",[27],86%
same,"kinase still bound, per cent of control",[28],54%
same,"kinase still bound, per cent of control",[29],100%
same,"kinase still bound, per cent of control",[30],60%
same,"kinase still bound, per cent of control",[31],100%
same,"kinase still bound, per cent of control",[32],31%
same,"kinase still bound, per cent of control",[33],91%
same,"kinase still bound, per cent of control",[34],75%
same,"kinase still bound, per cent of control",[35],56%
same,"kinase still bound, per cent of control",[36],34%
same,"kinase still bound, per cent of control",[37],13%
same,"kinase still bound, per cent of control",[38],21%
same,"kinase still bound, per cent of control",[39],100%
same,"kinase still bound, per cent of control",[40],35%
